Inhibition and Competition % data for 1 molecule are collected here from patent US20120270237A9, “METHODS FOR THE IDENTIFICATION OF KINASE INTERACTING MOLECULES AND FOR THE PURIFICATION OF KINASE PROTEINS” (Cellzone AG, priority 2009, published 2012).

The term inhibition denotes how much of the control response was suppressed.

SMILES strings stand for the structures.

What all share (details): 10 μM free compound
One assay concerns the target T1, TEC (Homo sapiens, UniProt P42680).
T1 sequence (P42680 1-631): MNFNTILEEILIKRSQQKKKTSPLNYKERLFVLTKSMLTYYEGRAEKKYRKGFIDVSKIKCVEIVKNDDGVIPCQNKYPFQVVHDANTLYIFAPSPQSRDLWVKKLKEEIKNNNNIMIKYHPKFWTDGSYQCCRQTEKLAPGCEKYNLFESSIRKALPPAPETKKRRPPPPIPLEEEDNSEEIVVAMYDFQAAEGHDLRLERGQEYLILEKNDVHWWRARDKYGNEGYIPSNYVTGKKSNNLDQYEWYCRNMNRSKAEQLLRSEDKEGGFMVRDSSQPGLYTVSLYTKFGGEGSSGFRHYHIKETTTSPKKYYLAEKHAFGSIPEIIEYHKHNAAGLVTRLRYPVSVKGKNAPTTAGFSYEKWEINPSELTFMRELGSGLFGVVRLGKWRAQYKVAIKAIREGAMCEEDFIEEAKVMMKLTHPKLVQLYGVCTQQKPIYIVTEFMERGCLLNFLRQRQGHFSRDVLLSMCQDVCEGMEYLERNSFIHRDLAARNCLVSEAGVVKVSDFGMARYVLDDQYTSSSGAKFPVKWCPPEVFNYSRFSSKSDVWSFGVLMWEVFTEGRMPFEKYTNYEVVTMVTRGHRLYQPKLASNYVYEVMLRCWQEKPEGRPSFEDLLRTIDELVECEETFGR
As to the kind of experiment: Kinobeads competition binding, HeLa Placenta lysate mix. Set-up: kinases from mixed HeLa placenta lysates; endogenous in cells; host or cells: mixed lysate of HeLa cells and placenta tissue. On the procedure:
(§1) To one aliquot of cell lysate 10 μM of the free compound (FIG. 3, CZC31326) was added and allowed to bind to proteins in the lysate. Then the affinity matrix with the immobilized compound was added to capture proteins that were not interacting with the previously added free compound. Beads were separated from the lysate and bead bound proteins were eluted in SDS sample buffer and subsequently separated by SDS-Polyacrylamide gel electrophoresis (FIG. 10). Suitable gel bands were cut out and subjected to in-gel proteolytic digestion with trypsin. The second lysate aliquot was processed identically, however no free compound was added (DMSO solvent control). Peptides originating from samples 1 and 2 were labeled with iTRAQ reagents (iTRAQ 114 and iTRAQ 117) and the combined samples were analyzed with a nano-flow liquid chromatography system coupled online to a tandem mass spectrometer (LC-MS/MS) experiment followed by iTRAQ reporter ion quantification in the MS/MS spectra as described in Example 2.

A further assay has as its target Wee1 (Homo sapiens, UniProt P30291). Described as above. Set-up: kinases from mixed HeLa placenta lysates; endogenous in cells; host or cells: mixed lysate of HeLa cells and placenta tissue. The procedure:
as §1

The next assay deals with YES (Homo sapiens, UniProt P07947). The description is as above. Set-up: kinases from mixed HeLa placenta lysates; endogenous in cells; host or cells: mixed lysate of HeLa cells and placenta tissue. The procedure: as §1
A further assay has as its system PITSLRE. As to the kind of experiment: Kinobeads competition binding, HL60 cell lysate. More on the design: species or system human. The procedure:
To one aliquot of cell lysate 10 μM of the free compound (FIG. 3, CZC31326) was added and allowed to bind to proteins in the lysate. Then the affinity matrix with the immobilized compound (Example 1) was added to capture proteins that were not interacting with the previously added free compound. Beads were separated from the lysate and bead bound proteins were eluted in SDS sample buffer and subsequently separated by SDS-Polyacrylamide gel electrophoresis (FIG. 4). Suitable gel bands were cut out and subjected to in-gel proteolytic digestion with trypsin. The second lysate aliquot was processed identically, however no free compound was added (DMSO solvent control). Peptides originating from samples 1 and 2 were labeled with iTRAQ reagents (iTRAQ 114 and iTRAQ 117) and the combined samples were analyzed with a nano-flow liquid chromatography system coupled online to a tandem mass spectrometer (LC-MS/MS) experiment followed by iTRAQ reporter ion quantification in the MS/MS spectra (Ross et al., 2004. Mol. Cell. Proteomics 3(12):1154-1169). […] The iTRAQ reagents are a set of multiplexed, amine-specific, stable isotope reagents that can label peptides on amino groups in up to four different biological samples enabling simultaneous identification and quantitation of peptides. […]

Wee1, sequence (P30291 whole entry): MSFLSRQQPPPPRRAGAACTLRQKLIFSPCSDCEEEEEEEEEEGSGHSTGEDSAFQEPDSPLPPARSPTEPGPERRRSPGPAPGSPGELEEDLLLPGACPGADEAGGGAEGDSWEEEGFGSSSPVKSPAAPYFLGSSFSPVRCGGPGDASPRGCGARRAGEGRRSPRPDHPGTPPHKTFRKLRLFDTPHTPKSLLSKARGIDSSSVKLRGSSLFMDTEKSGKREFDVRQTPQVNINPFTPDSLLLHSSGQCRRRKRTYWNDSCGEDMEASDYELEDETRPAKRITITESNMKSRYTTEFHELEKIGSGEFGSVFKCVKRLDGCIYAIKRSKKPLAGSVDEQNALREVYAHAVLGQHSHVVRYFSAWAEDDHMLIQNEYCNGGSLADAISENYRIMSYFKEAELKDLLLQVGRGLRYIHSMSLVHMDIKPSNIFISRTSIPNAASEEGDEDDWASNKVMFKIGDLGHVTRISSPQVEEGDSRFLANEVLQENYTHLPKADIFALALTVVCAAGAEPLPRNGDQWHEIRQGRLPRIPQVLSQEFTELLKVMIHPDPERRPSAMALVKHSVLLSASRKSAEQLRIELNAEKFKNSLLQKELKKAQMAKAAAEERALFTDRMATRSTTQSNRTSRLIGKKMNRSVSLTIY
YES, sequence (P07947 whole entry): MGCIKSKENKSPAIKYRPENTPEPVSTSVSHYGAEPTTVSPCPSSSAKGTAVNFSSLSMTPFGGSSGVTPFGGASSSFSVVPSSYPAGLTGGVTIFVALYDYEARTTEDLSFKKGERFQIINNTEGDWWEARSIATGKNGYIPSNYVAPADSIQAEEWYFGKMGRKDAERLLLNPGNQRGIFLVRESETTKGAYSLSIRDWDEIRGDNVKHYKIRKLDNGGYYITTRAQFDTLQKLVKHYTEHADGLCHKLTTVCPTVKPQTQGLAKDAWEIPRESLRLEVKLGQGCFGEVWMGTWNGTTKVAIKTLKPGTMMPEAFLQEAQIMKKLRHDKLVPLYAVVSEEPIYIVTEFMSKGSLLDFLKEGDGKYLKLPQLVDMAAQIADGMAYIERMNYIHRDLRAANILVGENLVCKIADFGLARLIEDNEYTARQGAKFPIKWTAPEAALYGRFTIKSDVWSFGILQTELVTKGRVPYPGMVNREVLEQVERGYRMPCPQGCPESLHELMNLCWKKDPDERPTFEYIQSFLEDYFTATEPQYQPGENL

In the case of `CS(=O)(=O)Nc1ccccc1Nc1nc(Nc2cccc(OCCN)c2)ncc1Cl` [CZC31326, N-(2-(2-(3-(2-aminoethoxy)phenylamino)-5-chloropyrimidin-4-ylamino)phenyl)methanesulfonamide], the inhibition at 10 µM on TEC was 89.2%; on Wee1, 95.2%; on YES, 90.3%. Further, in the assay with PITSLRE, the Competition % came out at 94.8%.
